What follows are compounds tested against Recombinant Human Poly(ADP-Ribose) Polymerase (PARP), PARP-1 (Homo sapiens (Human), UniProt P09874). Settings: read-out: PARP-1 (Ki); Table 1; text calls the values EC50s.
Chain of Recombinant Human Poly(ADP-Ribose) Polymerase (PARP), PARP-1 (P09874 whole entry): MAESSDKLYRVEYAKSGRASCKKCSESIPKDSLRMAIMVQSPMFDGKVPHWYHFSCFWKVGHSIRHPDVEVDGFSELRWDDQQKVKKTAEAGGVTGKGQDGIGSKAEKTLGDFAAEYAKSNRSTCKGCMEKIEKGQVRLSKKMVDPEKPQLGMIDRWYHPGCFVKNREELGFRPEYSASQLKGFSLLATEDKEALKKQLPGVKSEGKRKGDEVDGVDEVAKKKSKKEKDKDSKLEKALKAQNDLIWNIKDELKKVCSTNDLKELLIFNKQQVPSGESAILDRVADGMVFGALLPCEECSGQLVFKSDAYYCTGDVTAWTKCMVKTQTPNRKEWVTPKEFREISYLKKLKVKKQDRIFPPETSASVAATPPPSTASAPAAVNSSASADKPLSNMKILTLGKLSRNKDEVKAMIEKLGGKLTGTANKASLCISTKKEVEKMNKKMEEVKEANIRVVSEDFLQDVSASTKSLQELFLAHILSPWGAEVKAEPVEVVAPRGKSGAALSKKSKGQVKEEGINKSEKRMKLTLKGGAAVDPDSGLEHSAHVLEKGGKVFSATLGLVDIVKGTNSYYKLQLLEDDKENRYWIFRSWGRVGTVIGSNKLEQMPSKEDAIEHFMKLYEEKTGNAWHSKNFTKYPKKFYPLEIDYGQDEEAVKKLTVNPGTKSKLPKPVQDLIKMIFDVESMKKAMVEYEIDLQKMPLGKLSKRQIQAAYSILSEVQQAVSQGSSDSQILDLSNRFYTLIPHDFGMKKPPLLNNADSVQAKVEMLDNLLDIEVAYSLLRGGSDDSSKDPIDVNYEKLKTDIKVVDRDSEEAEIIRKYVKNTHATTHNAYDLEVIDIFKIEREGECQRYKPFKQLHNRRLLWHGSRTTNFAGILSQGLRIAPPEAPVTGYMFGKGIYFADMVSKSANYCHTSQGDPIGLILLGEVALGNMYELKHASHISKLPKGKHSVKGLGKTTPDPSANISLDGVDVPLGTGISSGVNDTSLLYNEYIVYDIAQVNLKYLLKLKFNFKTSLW

| SMILES | Ki |
| --- | --- |
| O=C(NCCN1CCCCC1)c1cc(Cc2n[nH]c(=O)c3c2NCCC3)ccc1F [Example 486, 2-fluoro-5-((5-oxo-1,2,3,4,5,6-hexahydropyrido(2,3-d)pyridazin-8-yl)methyl)-N-(2-piperidin-1-ylethyl)benzamide] | 15 nM |
| O=C(NCC(=O)N1CCCCC1)c1cc(Cc2n[nH]c(=O)c3c2NCCC3)ccc1F [Example 487, 2-fluoro-5-((5-oxo-1,2,3,4,5,6-hexahydropyrido(3,2-d)pyridazin-8-yl)methyl)-N-(2-oxo-2-(piperidin-1-yl)ethyl)benzamide] | 10 nM |
| O=C(c1cc(Cc2n[nH]c(=O)c3c2CCCC3)ccc1F)N1CCN(c2ncccn2)CC1 [Example 490, 4-(4-fluoro-3-((4-pyrimidin-2-ylpiperazin-1-yl)carbonyl)benzyl)-5,6,7,8-tetrahydrophthalazin-1(2H)-one] | 0.7 nM |
| O=C1CCCN1c1cc(-c2n[nH]c(=O)c3c2CCCC3)ccc1F [Example 491, 4-(4-fluoro-3-(2-oxopyrrolidin-1-yl)phenyl)-5,6,7,8-tetrahydrophthalazin-1(2H)-one] | 191 nM |
| CN(C)C(=O)N1CCN(C(=O)c2cc(Cc3n[nH]c(=O)c4c3CCCC4)ccc2F)CC1 [Example 494, 4-{2-fluoro-5-[(4-oxo-3,4,5,6,7,8-hexahydrophthalazin-1-yl)methyl]benzoyl}-N,N-dimethylpiperazine-1-carboxamide] | 0.9 nM |
| O=C(c1cc(Cc2n[nH]c(=O)c3c2CCCC3)ccc1F)N1CCN(C(=O)N2CCCCC2)CC1 [Example 495, 4-(4-fluoro-3-{[4-(piperidin-1-ylcarbonyl)piperazin-1-yl]carbonyl}benzyl)-5,6,7,8-tetrahydrophthalazin-1(2H)-one] | 1.9 nM |
| O=C(c1cc(Cc2n[nH]c(=O)c3c2CCCC3)ccc1F)N1CCN(c2cnccn2)CC1 [Example 496, 4-{4-fluoro-3-[(4-pyrazin-2-ylpiperazin-1-yl)carbonyl]benzyl}-5,6,7,8-tetrahydrophthalazin-1(2H)-one] | 0.8 nM |
| O=C(c1cc(Cc2n[nH]c(=O)c3c2CCCC3)ccc1F)N1CCN(c2ccncc2)CC1 [Example 497, 4-{4-fluoro-3-[(4-pyridin-4-ylpiperazin-1-yl)carbonyl]benzyl}-5,6,7,8-tetrahydrophthalazin-1(2H)-one] | 1.1 nM |
| NC(=O)C1CCN(C(=O)c2cc(Cc3n[nH]c(=O)c4c3CCCC4)ccc2F)CC1 [Example 498, 1-{2-fluoro-5-[(4-oxo-3,4,5,6,7,8-hexahydrophthalazin-1-yl)methyl]benzoyl}piperidine-4-carboxamide] | 2.7 nM |
| Cc1cncc(N2CCN(C(=O)c3cc(Cc4n[nH]c(=O)c5c4CCCC5)ccc3F)CC2)n1 [Example 499, 4-(4-fluoro-3-{[4-(6-methylpyrazin-2-yl)piperazin-1-yl]carbonyl}benzyl)-5,6,7,8-tetrahydrophthalazin-1(2H)-one] | 1.6 nM |
| NC(=O)C1CCCN(C(=O)c2cc(Cc3n[nH]c(=O)c4c3CCCC4)ccc2F)C1 (centres unmarked) [Example 500, 1-{2-fluoro-5-[(4-oxo-3,4,5,6,7,8-hexahydrophthalazin-1-yl)methyl]benzoyl}piperidine-3-carboxamide] | 3 nM |
| CN(C)CCN1CCN(C(=O)c2cc(Cc3n[nH]c(=O)c4c3CCCC4)ccc2F)CC1 [Example 501, 4-[3-({4-[2-(dimethylamino)ethyl]piperazin-1-yl}carbonyl)-4-fluorobenzyl]-5,6,7,8-tetrahydrophthalazin-1(2H)-one] | 4 nM |
| CN1CCCN(C(=O)c2cc(Cc3n[nH]c(=O)c4c3CCCC4)ccc2F)CC1 [Example 502, 4-{4-fluoro-3-[(4-methyl-1,4-diazepan-1-yl)carbonyl]benzyl}-5,6,7,8-tetrahydrophthalazin-1(2H)-one] | 1.5 nM |
| O=C(c1cc(Cc2n[nH]c(=O)c3c2CCCC3)ccc1F)N1CCC(O)CC1 [Example 503, 4-{4-fluoro-3-[(4-hydroxypiperidin-1-yl)carbonyl]benzyl}-5,6,7,8-tetrahydrophthalazin-1(2H)-one] | 1.3 nM |
| CN(C)CCN(C)C(=O)c1cc(Cc2n[nH]c(=O)c3c2CCCC3)ccc1F [Example 504, N-[2-(dimethylamino)ethyl]-2-fluoro-N-methyl-5-[(4-oxo-3,4,5,6,7,8-hexahydrophthalazin-1-yl)methyl]benzamide] | 3.6 nM |
| CCN(CC)C(=O)C1CCCN(C(=O)c2cc(Cc3n[nH]c(=O)c4c3CCCC4)ccc2F)C1 (centres unmarked) [Example 505, N,N-diethyl-1-{2-fluoro-5-[(4-oxo-3,4,5,6,7,8-hexahydrophthalazin-1-yl)methyl]benzoyl}piperidine-3-carboxamide] | 6 nM |
| CN1CCCN(C(=O)c2cc(Cc3n[nH]c(=O)c4c3NCCC4)ccc2F)CC1 [Example 509, 8-{4-fluoro-3-[(4-methyl-1,4-diazepan-1-yl)carbonyl]benzyl}-2,3,4,6-tetrahydropyrido[2,3-d]pyridazin-5(1H)-one] | 3 nM |
| CN(C)CCN(C)C(=O)c1cc(Cc2n[nH]c(=O)c3c2NCCC3)ccc1F [Example 513, N-[2-(dimethylamino)ethyl]-2-fluoro-N-methyl-5-[(5-oxo-1,2,3,4,5,6-hexahydropyrido[2,3-d]pyridazin-8-yl)methyl]benzamide] | 6 nM |

| SMILES | Ki |
| --- | --- |
| O=C(c1cc(Cc2n[nH]c(=O)c3c2CCCC3)ccc1F)N1CCN(Cc2cccc(Cl)c2)CC1 [Example 514, 4-(3-{[4-(3-chlorobenzyl)piperazin-1-yl]carbonyl}-4-fluorobenzyl)-5,6,7,8-tetrahydrophthalazin-1(2H)-one] | 9 nM |
| O=C(c1cc(Cc2n[nH]c(=O)c3c2CCCC3)ccc1F)N1CCN(c2ccccc2)CC1 [Example 515, 4-{4-fluoro-3-[(4-phenylpiperazin-1-yl)carbonyl]benzyl}-5,6,7,8-tetrahydrophthalazin-1(2H)-one] | 3 nM |
| O=C(c1cc(Cc2n[nH]c(=O)c3c2CCCC3)ccc1F)N1CCN(c2ccccc2Cl)CC1 [Example 517, 4-(3-{[4-(2-chlorophenyl)piperazin-1-yl]carbonyl}-4-fluorobenzyl)-5,6,7,8-tetrahydrophthalazin-1(2H)-one] | 5 nM |
| O=C(c1cc(Cc2n[nH]c(=O)c3c2CCCC3)ccc1F)N1CCN(Cc2ccccc2Cl)CC1 [Example 518, 4-(3-{[4-(2-chlorobenzyl)piperazin-1-yl]carbonyl}-4-fluorobenzyl)-5,6,7,8-tetrahydrophthalazin-1(2H)-one] | 10 nM |
| NC(=O)C1CCCN(C(=O)c2cc(Cc3n[nH]c(=O)c4c3NCCC4)ccc2F)C1 (centres unmarked) [Example 519, 1-{2-fluoro-5-[(5-oxo-1,2,3,4,5,6-hexahydropyrido[2,3-d]pyridazin-8-yl)methyl]benzoyl}piperidine-3-carboxamide] | 5 nM |
| CC(=O)N1CCN(C(=O)c2cc(Cc3n[nH]c(=O)c4c3CCCC4)ccc2F)CC1 [Example 520, 4-{3-[(4-acetylpiperazin-1-yl)carbonyl]-4-fluorobenzyl}-5,6,7,8-tetrahydrophthalazin-1(2H)-one] | 0.1 nM |
| O=C(c1cc(Cc2n[nH]c(=O)c3c2CCCC3)ccc1F)N1CCN(c2ccccc2F)CC1 [Example 523, 4-(4-fluoro-3-{[4-(2-fluorophenyl)piperazin-1-yl]carbonyl}benzyl)-5,6,7,8-tetrahydrophthalazin-1(2H)-one] | 13 nM |
| O=C(c1cc(Cc2n[nH]c(=O)c3c2CCCC3)ccc1F)N1CCN(c2ccc(F)cc2F)CC1 [Example 524, 4-(3-{[4-(2,4-difluorophenyl)piperazin-1-yl]carbonyl}-4-fluorobenzyl)-5,6,7,8-tetrahydrophthalazin-1(2H)-one] | 5 nM |
| O=C(c1ccccc1)N1CCN(C(=O)c2cc(Cc3n[nH]c(=O)c4c3CCCC4)ccc2F)CC1 [Example 525, 4-{3-[(4-benzoylpiperazin-1-yl)carbonyl]-4-fluorobenzyl}-5,6,7,8-tetrahydrophthalazin-1(2H)-one] | 1.6 nM |
| O=C(c1cc(Cc2n[nH]c(=O)c3c2NCCC3)ccc1F)N1CCN(C(=O)N2CCCCC2)CC1 [Example 526, 8-(4-fluoro-3-{[4-(piperidin-1-ylcarbonyl)piperazin-1-yl]carbonyl}benzyl)-2,3,4,6-tetrahydropyrido[2,3-d]pyridazin-5(1H)-one] | 4 nM |
| O=C(c1cc(Cc2n[nH]c(=O)c3c2CCCC3)ccc1F)N1CCN(c2cccc(F)c2)CC1 [Example 527, 4-(4-fluoro-3-{[4-(3-fluorophenyl)piperazin-1-yl]carbonyl}benzyl)-5,6,7,8-tetrahydrophthalazin-1(2H)-one] | 3 nM |
| O=C(c1cc(Cc2n[nH]c(=O)c3c2CCCC3)ccc1F)N1CCN(c2ccc(F)cc2)CC1 [Example 528, 4-(4-fluoro-3-{[4-(4-fluorophenyl)piperazin-1-yl]carbonyl}benzyl)-5,6,7,8-tetrahydrophthalazin-1(2H)-one] | 4 nM |
| O=C(c1cc(Cc2n[nH]c(=O)c3c2CCCC3)ccc1F)N1CCN(c2ccccn2)CC1 [Example 529, 4-{4-fluoro-3-[(4-pyridin-2-ylpiperazin-1-yl)carbonyl]benzyl}-5,6,7,8-tetrahydrophthalazin-1(2H)-one] | 2 nM |
| CCN(CC)C(=O)N1CCN(C(=O)c2cc(Cc3n[nH]c(=O)c4c3CCCC4)ccc2F)CC1 [Example 530, N,N-diethyl-4-{2-fluoro-5-[(4-oxo-3,4,5,6,7,8-hexahydrophthalazin-1-yl)methyl]benzoyl}piperazine-1-carboxamide] | 2 nM |
| CC(C)N1CCN(C(=O)c2cc(Cc3n[nH]c(=O)c4c3CCCC4)ccc2F)CC1 [Example 531, 4-{4-fluoro-3-[(4-isopropylpiperazin-1-yl)carbonyl]benzyl}-5,6,7,8-tetrahydrophthalazin-1(2H)-one] | 2 nM |
| O=C(CN1CCN(C(=O)c2cc(Cc3n[nH]c(=O)c4c3NCCC4)ccc2F)CC1)N1CCCC1 [Example 532, 8-(4-fluoro-3-{[4-(2-oxo-2-pyrrolidin-1-ylethyl)piperazin-1-yl]carbonyl}benzyl)-2,3,4,6-tetrahydropyrido[2,3-d]pyridazin-5(1H)-one] | 4 nM |
| O=C(c1cc(Cc2n[nH]c(=O)c3c2CCCC3)ccc1F)N1CCN(C(=O)N2CCOCC2)CC1 [Example 533, 4-(4-fluoro-3-{[4-(morpholin-4-ylcarbonyl)piperazin-1-yl]carbonyl}benzyl)-5,6,7,8-tetrahydrophthalazin-1(2H)-one] | 2 nM |

Source: patent US9283222B2 (priority 2006, dated 2016)
